Three compounds from US20170127677A1, “Formulation of clomazone having reduced volatility” (BASF SE, priority 2014, published 2017) can be followed below.

Structures are written as SMILES.

This data set in a line: Volatility of clomazone from spray solution: glass tube at 25° C. with air suction, loss determined by GC. The following applies: 24 h; for reduction of volatility of Clomazone by compound (B): Test experiment 5, clomazone WP 100 g/ha, component B 335 g/ha. The class given is physicochemical. The procedure: However, a preferred method for determining the volatility of the compounds contained in the compositions according to the present invention is carried out as follows: Glass tubes (internal diameter 23 mm) are immersed in a water bath at 25° C. In the bottom of each of the glass tubes 100 μl of spray solution (component A and B diluted in water at the concentration that a farmer would typically spray) are applied with a pipette. A tube is inserted in the glass tube. The ending of the inserted tube stays 25 mm above the bottom of the glass tube (i.e. the test sample). Along the inserted tube, the air contained in each individual glass tube is constantly suctioned at 250 L/h for the whole system. All glass tubes are separated from the lid by spacers which ensure the inlet of fresh air to the glass tubes. After short time the test sample is evaporated. The system is stopped according to a defined sampling period, preferably after 24 hours. The glass tubes are taken out and washed with THF. The washing solution is analyzed by GC for the compound of interest, e.g. clomazone. The loss of compound is calculated in % of the total amount of compound applied in the initial 100 μl sample. The reference test samples for the quantification of the initial applied Clomazone contain also THF. Each value is generated from 3 to 4 independent measurements. This method allows determining the relative volatility of a certain compound depending on the additional compounds present in a certain composition.
Non-encapsulated Clomazone (as WP formulation) was prepared at 100 g/ha with 200 L water/ha. Paraffinic oil, rapeseed oil methyl ester and the aromatic solvent were added at 335 g/ha, while Dimethenamid was added at 500 g/ha. For the solvents, an appropriate emulsifier system was added. The sample size was 100 μl. The volatility test was carried out at 25° C. and the operating time was 24 h.
Solvents typically used in crop protection agents were tested for comparative purposes. As comparison dimethenamid (dimethenamid P) was also tested, but differently from example 1, the test sample solution was prepared at 335 g/ha.CE3 was included again. Two controls were included in the experiment. For the solvents, an appropriate emulsifier system was added. The volatility test was carried out at 25° C., the operating time was 24 h. The sample size was 100 μl.
Various fatty acid amides were tested as additional components in herbicidal compositions with respect to the question if volatility of clomazone in such compositions is affected. For the solvents, an appropriate emulsifier system was added. The volatility test was carried out at 25° C. the operating time was 24 h. The sample size was 100 μl. […]

For `CCc1cccc(C)c1N(C(=O)CCl)C(C)COC` (racemic) [Metolachlor, (RS)-2-ethyl-6-methyl-N-(1′-methyl-2′-methoxyethyl)-chloracetanilid], the “reduction of volatility of Clomazone by compound (B)” value is given as “support the claimed reduction of volatility of Clomazone”.

Turning to `COCC(C)N(C(=O)CCl)c1c(C)csc1C` (stereo not shown) [Dimethenamid, R,S-2-Chloro-N-(2,4-dimethyl-3-thienyl)-N-(2-methoxy-1-methylethyl)acetamide], the “effect on volatility of clomazone in the composition” value (Test experiment 1, clomazone WP 100 g/ha, dimethenamid 500 g/ha, solvents 335 g/ha) is on record as “significantly reduces the volatility of clomazone”. Also, the “effect on volatility of clomazone in herbicidal compositions” value (Test experiment 2, clomazone 100 g/ha, dimethenamid or solvent 335 g/ha) is reported as “significantly reduce the volatility of clomazone”.

In the case of `CCC(CC)Nc1c([N+](=O)[O-])cc(C)c(C)c1[N+](=O)[O-]` [Pendimethalin, N-(1-ethylpropyl)-3,4-dimethyl-2,6-dinitrophenylamine], the “reduction of volatility of Clomazone by compound (B)” value is recorded as “support the claimed reduction of volatility of Clomazone”.
